Read-outs that look alike come from different tables or passages of the source.
What was measured:
alopecia areata = details: cited from earlier work
[1] = Solubility of DPCP in solvents for gels and ointments; type: physicochemical
Protocol: (§1) The compatibility and solubility of DPCP was determined in both isopropyl myristate (IPM) as well as Polysorbate 80 (PS80). […] Next, the stability of DPCP in these solvents was determined. A solution of 0.4% DPCP in isopropyl myristate and a solution of 0.4% DPCP in Polysorbate 80 was placed at 50° C. for two weeks. The stability of DPCP in these solvents was determined using reverse phase HPLC on a C18 column.

[2] = Stability of DPCP in solvents at 50° C., reverse phase HPLC on a C18 column; type: physicochemical
Protocol: as §1
For the development of a gel formulation, the stability of DPCP was determined in both Ethanol (ETOH) and Isopropanol (IPA) (0.4% DPCP solutions in each solvent was placed at 50° C. for two weeks; FIG. 2. All solutions contained 0.1% BHT). […] However, DPCP was stable in IPA. The stability of DPCP in the above solvents was determined using reverse phase HPLC on a C18 column.

CTGF mRNA = details: rat skin, cited from earlier work; for reduction of CTGF mRNA: Days 1 and 3, biopsy Day 8, vs dose matched non-targeting control

Row | solubility of DPCP ([1]; in Polysorbate 80 (PS80)) | solubility of DPCP ([1]; in isopropyl myristate (IPM)) [% w/w] | stability of DPCP ([2]; 0.4% DPCP in Ethanol, 0.1% BHT, in the presence of citric acid, 50° C., two weeks) | stability of DPCP ([2]; 0.4% DPCP in Isopropanol (IPA), 0.1% BHT, 50° C., two weeks) | stability of DPCP ([2]; 0.4% DPCP in Polysorbate 80, 50° C., two weeks) | stability of DPCP ([2]; 0.4% DPCP in isopropyl myristate, 50° C., two weeks) | stability of DPCP ([2]; in PS80 with butylated hydroxytoloune (BHT)) | Compound | initial hair regrowth visible after (alopecia areata; alopecia areata patients, 2% sensitizing dose followed by 0.001% challenge doses) | response rates (alopecia areata; in over 25 different studies for treating AA with haptens) | reduction of CTGF mRNA (CTGF mRNA; 300 μg per intradermal injection) [%] | reduction of CTGF mRNA (CTGF mRNA; 600 μg per intradermal injection) [%] | duration of silencing of CTGF vs. non-targeting control (CTGF mRNA; following two intradermal injections)
1 | highly soluble | ~1.1 | Some degradation | stable | some degradation | stable | reduce the amount of degradation | O=c1c(-c2ccccc2)c1-c1ccccc1 [DPCP, Diphenylcyclopropenone] | 8-12 weeks | 29-78% |  |  | 
2 |  |  |  |  |  |  |  | RXI-109: CTGF-targeting sd-rxRNA consisting of sense strand SEQ ID NO:27 (TEG-Chl) and antisense strand SEQ ID NO:28 (sense GCACCUUUCUAGA; antisense UCUAGAAAGGUGCAAACAU; TEG-cholesterol on sense strand; (2)..(2) Modified with 2′Ome; (4)..(10) Modified with 2′Ome; (11)..(13) Phosphorothioate internucleotide bond; (12)..(13) Modified with 2′Ome; (13)..(13) Modified with TEG-Chl; (1)..(1) Modified with P; (1)..(1) Modified with 2′Ome; (2)..(3) Modified with 2′fluoro; (6)..(6) Modified with 2′Ome; (8)..(8) Modified with 2′Ome; (11)..(11) Modified with 2′fluoro; (13)..(13) Modified with 2′Ome; (13)..(19) Phosphorothioate internucleotide bond; (17)..(17) Modified with 2′Ome) |  |  | 51 | 67 | sustained for at least five days
